{"source": "patent US20100304384A1", "about": "“METHOD OF IDENTIFYING COMPOUNDS THAT INDUCE OR INHIBIT ENDOPLASMIC RETICULUM STRESS OR OXIDATIVE STRESS” (UNIVERSIDAD AUTONOMA DE MADRID, priority 2007, published 2010)", "format_in_all_cases": "cell-based, human", "key": {"DDIT3 promoter": {"system": "DDIT3 promoter", "test": "Luciferase reporter activity in SK-N-MC cells transiently transfected with pXP2-DDIT3 constructs", "conditions": "transient transfection, both allelic variants; alteration seen after 6 hours of treatment", "method": "On the day before the transfection 2×10^5 cells per well are seeded in a 24-well plate (M24, from Falcon). 0.7 μg of DNA per well are transfected mixing the plasmids pXP2-DDIT3 and pSV-β-galactosidase in a 1:1 ratio (0.35 μg of pXP2 and 0.35 μg of β-gal) with Lipofectamine Plus (from Life Technologies), following the manufacturer's indications, in a 1:3 DNA:Lipofectamine ratio and allowing the cells to incubate with the plasmid for 5 hours. Twenty-four hours after the transfection the cells are treated to see the response to the stimulus. […]\nThe cell lysate was assayed for the β-galactosidase activity, as an indicator of the transfection efficiency, and luciferase activity, as an indicator of the transcriptional activity of the promoters: • Assay of β-galactosidase activity. […] This reaction generates a colored product the concentration of which is measured as absorbance at 415 nm in an E.L.I.S.A. plate reader (Model 680, from BioRad). • Assay of luciferase activity. 40 μl of cell lysate are measured adding 100 μl of reagent of the enzyme (20 mM Tricin, […], 33.3 mM DTT, 270 μM Coenzyme A —all from Sigma—, 2.67 mM MgSO4, 0.1 mM EDTA—both from Merck—, 470 μM Luciferin potassium salt —Promega—and 530 μM ATP—Boehringer Mannheim—); alternatively, the one of the Luciferase Assay System kit—Promega—was used. […]"}, "DDIT3 promoter (−1507G)": {"system": "DDIT3 promoter (−1507G)", "test": "Luciferase reporter activity in SK-N-MC cells stably transfected with pXP2 DDIT3(−1507G)-Luciferase (G7 cell line)", "conditions": "−1507G construct, stable SK-N-MC cells, 15 hours of treatment; ± standard error of the mean", "method": "(§1) The cell lysate was assayed for the β-galactosidase activity, as an indicator of the transfection efficiency, and luciferase activity, as an indicator of the transcriptional activity of the promoters: • Assay of β-galactosidase activity. 50 μl of cell lysate are incubated in an E.L.I.S.A. plate with 50 μl of enzyme substrate (2 mM MgCl2—Merck—, 100 mM β-mercaptoethanol—Sigma—, 120 mM Na2HPO4, 80 mM NaH2PO4—both from Carlo Erba—and 1.33 mg/ml of ONPG (2-Nitrophenyl-β-D-galactopyranoside)—Sigma—). This reaction generates a colored product the concentration of which is measured as absorbance at 415 nm in an E.L.I.S.A. plate reader (Model 680, from BioRad). • Assay of luciferase activity. 40 μl of cell lysate are measured adding 100 μl of reagent of the enzyme (20 mM Tricin, […], 33.3 mM DTT, 270 μM Coenzyme A —all from Sigma—, 2.67 mM MgSO4, 0.1 mM EDTA—both from Merck—, 470 μM Luciferin potassium salt —Promega—and 530 μM ATP—Boehringer Mannheim—); alternatively, the one of the Luciferase Assay System kit—Promega—was used. The luminescence emission is recorded in a Monolight 2010 illuminometer (Analytical Luminescence Laboratory). […]\n(§2) The clones resistant to the antibiotic are isolated by aspiration with an automatic pipette and seeded in an M24 for the expansion thereof. The expression of luciferase is analyzed and the lines having greater luciferase activity are maintained. […]"}, "DDIT3 promoter (−1507C)": {"system": "DDIT3 promoter (−1507C)", "test": "Luciferase reporter activity in SK-N-MC cells stably transfected with pXP2 DDIT3(−1507C)-Luciferase (C1 cell line)", "conditions": "−1507C construct, stable SK-N-MC cells, 15 hours of treatment; ± standard error of the mean", "method": "as §1, §2"}}, "data": [{"substance": "Tunicamycin [ERS]", "values": [{"measurement": "Transcriptional activity of the DDIT3 promoter after treatment", "setting": "DDIT3 promoter", "value": "increases significantly"}, {"measurement": "Luciferase activity with respect to the non-treated cells (activation of the DDIT3 promoter)", "setting": "DDIT3 promoter (−1507G)", "value": "3.4 ± 0.3", "unit": "times"}, {"measurement": "Luciferase activity with respect to the non-treated cells (activation of the DDIT3 promoter)", "setting": "DDIT3 promoter (−1507C)", "value": "4.6 ± 0.4", "unit": "times"}]}]}
